Calls of active or inactive are those of the source. The rule behind the calls is not given here.
Experiments:
[1] = system: Ebolavirus; test: Antiviral activity against pseudotyped Ebola virus expressing glycoprotein infected in human A549 cells assessed as inhibition of viral entry incubated for 48 hrs by Neolite reporter gene assay; format: functional, organism-based; conditions: Orthoebolavirus, A549, 48 h
[2] = system: Marburgvirus; test: Antiviral activity against pseudotyped Marburg virus expressing glycoprotein infected in human A549 cells assessed as inhibition of viral entry incubated for 48 hrs by Neolite reporter gene assay; format: functional, organism-based; conditions: Orthomarburgvirus, A549, 48 h
[3] = Selectivity index, ratio of CC50 for human A549 cells to EC50 for pseudotyped Ebola virus expressing glycoprotein infected in human A549 cells; format: toxicity, cell-based; conditions: read-out: Ratio CC50/EC50
[4] = system: Zaire ebolavirus; test: Antiviral activity against pseudotyped Zaire ebolavirus expressing glycoprotein infected in human A549 cells assessed as inhibition of viral entry incubated for 48 hrs by Neolite reporter gene assay; format: functional, organism-based; conditions: A549, 48 h
[5] = system: HeLa; test: Cytotoxicity against human HeLa cells by Celltiter-Glo luminescent cell viability assay; format: toxicity, cell-based
[6] = system: Bundibugyo virus; test: Antiviral activity against pseudotyped Bundibugyo ebolavirus expressing glycoprotein infected in human A549 cells assessed as inhibition of viral entry incubated for 48 hrs by Neolite reporter gene assay; format: functional, organism-based; conditions: A549, 48 h
[7] = Selectivity index, ratio of CC50 for human HeLa cells to EC50 for antiviral activity against wildtype Ebolavirus infected in human HeLa cells; format: toxicity, cell-based; conditions: read-out: Ratio CC50/EC50
[8] = system: Reston ebolavirus; test: Antiviral activity against pseudotyped Reston ebolavirus expressing glycoprotein infected in human A549 cells assessed as inhibition of viral entry incubated for 48 hrs by Neolite reporter gene assay; format: functional, organism-based; conditions: A549, 48 h
[9] = system: Sudan ebolavirus; test: Antiviral activity against pseudotyped Sudan ebolavirus expressing glycoprotein infected in human A549 cells assessed as inhibition of viral entry incubated for 48 hrs by Neolite reporter gene assay; format: functional, organism-based; conditions: A549, 48 h
[10] = system: Influenza A virus; test: Antiviral activity against pseudotyped Influenza A virus A/Goose/Qinghai/59/05(H5N1) infected in human A549 cells assessed as inhibition of viral entry incubated for 48 hrs by Neolite reporter gene assay; format: functional, organism-based
[11] = system: Vesicular stomatitis virus; test: Antiviral activity against pseudotyped vesicular stomatitis virus expressing glycoprotein infected in human A549 cells assessed as inhibition of viral entry incubated for 48 hrs by Neolite reporter gene assay; format: functional, organism-based
[12] = system: Tai Forest ebolavirus; test: Antiviral activity against pseudotyped Tai Forest ebolavirus expressing glycoprotein infected in human A549 cells assessed as inhibition of viral entry incubated for 48 hrs by Neolite reporter gene assay; format: functional, organism-based; conditions: A549, 48 h
[13] = system: Ebolavirus; test: Antiviral activity against wildtype Ebola virus infected in human HeLa cells incubated for 40 hrs by Hoechst 33342 staining based Cytation-1 automated microscopic analysis; format: functional, organism-based; conditions: Orthoebolavirus
[14] = system: Ebolavirus; test: Binding affinity to Ebolavirus glycoprotein by SPR analysis

O=C(Nc1ccc(N2CCC3(CCC3)CC2)c(C(F)(F)F)c1)c1ccc(CN2CCOCC2)cc1
EC50 [1]: 90 nM | EC50 [2]: 1110 nM | selectivity ratio [3]: 209

O=C(c1ccc(CN2CCOCC2)cc1)N(c1ccccc1)c1ccccc1
EC50 [1]: 6720 nM | EC50 [2]: 71100 nM | selectivity ratio [3]: > 15

CC1CCN(c2ccc(N(CC3CC3)C(=O)c3ccc(CN4CCOCC4)cc3)cc2C(F)(F)F)CC1
EC50 [1]: 1820 nM | EC50 [2]: 4610 nM | selectivity ratio [3]: 22

CC1(C)CCN(c2ccc(NC(=O)c3ccc(CN4CCOCC4)cc3)cc2C(F)(F)F)C1
EC50 [1]: 190 nM | EC50 [2]: 1450 nM | selectivity ratio [3]: 321

O=C(Nc1ccc(N2CCC2)c(C(F)(F)F)c1)c1ccc(CN2CCOCC2)cc1
EC50 [1]: 14900 nM | EC50 [2]: 42400 nM | selectivity ratio [3]: 6

CC1CCN(c2ccc(N(C)C(=O)c3ccc(CN4CCOCC4)cc3)cc2C(F)(F)F)CC1
EC50 [1]: 1550 nM | EC50 [2]: 7560 nM | selectivity ratio [3]: 33

CC1CC(C)CN(c2ccc(NC(=O)c3ccc(CN4CCOCC4)cc3)cc2C(F)(F)F)C1 (stereo not given)
EC50 [1]: 1070 nM | EC50 [2]: 5340 nM | selectivity ratio [3]: 52

O=C(Nc1ccc(N2CCC3(CCC3)CC2)c(C(F)(F)F)c1)c1ccc(C(=O)N2C[C@H]3C[C@@H]2CO3)nc1
EC50 [4]: 230 nM | CC50 [5]: 43400 nM | EC50 [6]: 1190 nM | selectivity ratio [7]: 49 | EC50 [8]: 260 nM | EC50 [9]: 1610 nM | EC50 [1]: 230 nM | EC50 [2]: 3890 nM | inhibition [10]: Weak_effect | inhibition [11]: Weak_effect | EC50 [12]: 130 nM | selectivity ratio [3]: 201 | EC50 [13]: 890 nM

CC1CCN(c2ccc(NC(=O)c3ccc(CN4CCOCC4)cc3)cc2F)CC1
EC50 [1]: > 100000 nM | EC50 [2]: > 100000 nM | selectivity ratio [3]: > 1

CC1CCN(c2ccc(C(=O)Nc3ccc(CN4CCOCC4)cc3)cc2C(F)(F)F)CC1
EC50 [1]: 1030 nM | EC50 [2]: 2900 nM | selectivity ratio [3]: 23

O=C(Nc1csc(N2CCOCC2)n1)c1ccc(CN2CCOCC2)cc1
EC50 [1]: > 100000 nM | EC50 [2]: > 100000 nM | selectivity ratio [3]: > 1

CC1CCN(c2ccc(NC(=O)c3ccc(CN4C[C@@H]5C[C@H]4CO5)nc3)cc2C(F)(F)F)CC1
Activity [14]: Active | EC50 [1]: 310 nM | EC50 [2]: 3430 nM | selectivity ratio [3]: 149

O=C(Nc1ccc(C(F)(F)F)c(Cl)c1)c1ccc(CN2CCOCC2)cc1
EC50 [1]: 22100 nM | EC50 [2]: 3910 nM | selectivity ratio [3]: 1

CC1CCN(c2ccc(NC(=O)c3ccc(CN4C[C@@H]5C[C@H]4CO5)cc3)cc2C(F)(F)F)CC1
EC50 [1]: 230 nM | EC50 [2]: 1340 nM | selectivity ratio [3]: 86

CN1CCN(c2ccc(NC(=O)c3ccc(CN4CCOCC4)cc3)cc2C(F)(F)F)CC1
EC50 [1]: 970 nM | EC50 [2]: 3930 nM | selectivity ratio [3]: 37

CC1(C)CCCN(c2ccc(NC(=O)c3ccc(CN4CCOCC4)cc3)cc2C(F)(F)F)C1
EC50 [1]: 370 nM | EC50 [2]: 6580 nM | selectivity ratio [3]: 107

O=C(Nc1ccc(N2CCC3(CCC3)CC2)c(C(F)(F)F)c1)c1ccc(CN2C[C@H]3C[C@@H]2CO3)nc1
EC50 [4]: 210 nM | CC50 [5]: 13400 nM | EC50 [6]: 960 nM | EC50 [8]: 400 nM | EC50 [9]: 420 nM | EC50 [1]: 210 nM | EC50 [2]: 880 nM | inhibition [10]: Weak_effect | inhibition [11]: Weak_effect | EC50 [12]: 170 nM | EC50 [13]: 520 nM

O=C(Nc1ccc(C23CC4CC(CC(C4)C2)C3)cc1)c1ccc(CN2CCOCC2)cc1
EC50 [1]: 150 nM | EC50 [2]: 8070 nM | selectivity ratio [3]: 495

O=C(N[C@]12CC3CC(C[C@@H](C3)C1)C2)c1ccc(CN2CCOCC2)cc1
EC50 [1]: 6270 nM | EC50 [2]: 53800 nM | selectivity ratio [3]: 16

O=C(Nc1ccc(C23CC4CC(CC(O)(C4)C2)C3)cc1)c1ccc(CN2CCOCC2)cc1
EC50 [1]: 64600 nM | EC50 [2]: 25000 nM

CC1CCN(c2ccc(NC(=O)c3ccc(CN4CCOCC4)cc3)cc2Cl)CC1
EC50 [1]: 4320 nM | EC50 [2]: 18500 nM | selectivity ratio [3]: 6

CC1CCN(c2ccc(NC(=O)c3ccc(CN4CCOCC4)cc3)cn2)CC1
EC50 [1]: 12400 nM | EC50 [2]: 24400 nM | selectivity ratio [3]: 8

O=C(Nc1ccc(Cl)c(C(F)(F)F)c1)c1ccc(CN2CCOCC2)cc1
EC50 [1]: 8090 nM | EC50 [2]: 5600 nM | selectivity ratio [3]: 6

O=C(Nc1ccc(N2CCOCC2)c(C(F)(F)F)c1)c1ccc(CN2CCOCC2)cc1
EC50 [1]: 490 nM | EC50 [2]: 6970 nM | selectivity ratio [3]: 69

O=C(Nc1ccc(C23CC4CC(CC(C4)C2)C3)cc1)c1ccc(CN2C[C@@H]3C[C@H]2CO3)cc1
Activity [14]: Active | CC50 [5]: 10300 nM | selectivity ratio [7]: 17 | EC50 [1]: 200 nM | EC50 [2]: 1330 nM | selectivity ratio [3]: 77 | EC50 [13]: 610 nM

O=C(Nc1ccc(C23CC4CC(CC(C4)C2)C3)cc1)c1ccc(CN2C[C@@H]3C[C@H]2CO3)nc1
Activity [14]: Active | EC50 [1]: 230 nM | EC50 [2]: 2800 nM | selectivity ratio [3]: 258

CC1CCN(c2ccc(NC(=O)c3ccc(CN4CCOCC4)nc3)cc2C(F)(F)F)CC1
EC50 [1]: 400 nM | EC50 [2]: 1120 nM | selectivity ratio [3]: 138

CC1CCCN(c2ccc(NC(=O)c3ccc(CN4CCOCC4)cc3)cc2C(F)(F)F)C1 (stereo not given)
EC50 [1]: 300 nM | EC50 [2]: 3060 nM | selectivity ratio [3]: 142

CC(C)C1CCN(c2ccc(NC(=O)c3ccc(CN4CCOCC4)cc3)cc2C(F)(F)F)CC1
EC50 [1]: 560 nM | EC50 [2]: 5640 nM | selectivity ratio [3]: 28

O=C(Nc1ccc(SC(F)(F)F)c(Cl)c1)c1ccc(CN2CCOCC2)cc1
EC50 [1]: 4950 nM | EC50 [2]: 8430 nM | selectivity ratio [3]: 5

O=C(Nc1ccc(N2CC3(CCC3)C2)c(C(F)(F)F)c1)c1ccc(CN2CCOCC2)cc1
EC50 [1]: 860 nM | EC50 [2]: 3650 nM | selectivity ratio [3]: 116

CC(C)(C)C1CCN(c2ccc(NC(=O)c3ccc(CN4CCOCC4)cc3)cc2C(F)(F)F)CC1
EC50 [1]: 1450 nM | EC50 [2]: 6150 nM | selectivity ratio [3]: 13

CC1CCN(c2ccc(NC(=O)c3ccc(CN4C[C@@H]5C[C@H]4CO5)cn3)cc2C(F)(F)F)CC1
EC50 [1]: 290 nM | EC50 [2]: 8230 nM | selectivity ratio [3]: 345

O=C(Nc1ccc(N2CCCC2)c(C(F)(F)F)c1)c1ccc(CN2CCOCC2)cc1
EC50 [1]: 3300 nM | EC50 [2]: 14900 nM | selectivity ratio [3]: 18

CC1CCN(c2ccc(NC(=O)Nc3ccc(CN4CCOCC4)cc3)cc2C(F)(F)F)CC1
EC50 [1]: 2180 nM | EC50 [2]: 3490 nM | selectivity ratio [3]: 7

O=C(Nc1ccc(CN2CCOCC2)cc1)c1ccc(Cl)c(C(F)(F)F)c1
EC50 [1]: 7760 nM | EC50 [2]: 5660 nM | selectivity ratio [3]: 9

CC(C)(C)c1ccc(NC(=O)c2ccc(CN3CCOCC3)cc2)c(C(C)(C)C)c1
EC50 [1]: 3320 nM | EC50 [2]: 17100 nM | selectivity ratio [3]: 30

O=C(Nc1ccc(CN2CCOCC2)cc1)Nc1ccc(C23CC4CC(CC(C4)C2)C3)cc1
CC50 [5]: 16600 nM | selectivity ratio [7]: 24 | EC50 [1]: 370 nM | EC50 [2]: 2580 nM | selectivity ratio [3]: 32 | EC50 [13]: 700 nM

Reference: ChEMBL document CHEMBL6087437 (J Med Chem, 2025)
